Consider three substances from article PMC10309634, “Computer simulation approach to the identification of visfatin-derived angiogenic peptides” (PLOS ONE, 2023).

What all share (assay type): cell-based, human
Data set [1] deals with HUVECs. The data set can be described thus: In vitro tube formation assay on Matrigel. The conditions noted are these: 4 hours on Matrigel. On the procedure:
HUVECs (2×10^4 cells/well) were seeded on a layer of polymerized Matrigel and treated with or without visfatin-derived peptides. The Matrigel culture was incubated at 37°C in the EGM supplemented with EGM-Supplement Mix® containing 1% FBS. After 4 hours, changes in the cell morphology were observed using a phase-contrast microscope and photographed at 40× magnification. Each sample was assayed in duplicate, and independent experiments were repeated three times. Angiogenesis was analyzed with ImageJ software using an angiogenesis analyzer (Bethesda, MD, USA).

Data set [2] concerns HUVECs. The data set can be described thus: MTT cell cytotoxicity assay. Conditions: MTT, 0.1, 0.5, 1.0 and 2.0 μM, 24 hours, triplicate. How it is done: HUVECs were grown in EGM-2 supplemented with an EGM-2 Supplement Mix® (PromoCell) containing 2% FBS at a density of 1×10^4 cells in 96-well plates (SPL Inc., Gyeonggido, Korea). After 24 hours, the cells were treated with 1000ng/ml visfatin (Adipogen Life Science) and various concentrations of visfatin-derived peptides (0.1, 0.5, 1.0, and 2.0 μM), and then incubated overnights in an atmosphere of 5% CO2. The 3-(4,5-Dimethylthiazol-2-yl)-2,5-diphenyltetrazolium bromide (MTT) assay reagents (Sigma-Aldrich, St. Louis, MO, USA) were as added directly to each well to a final concentration of 0.5 mg/ml. After 4 hours, the medium was removed, the formazan crystals formed in the cells were dissolved in DMSO, and the absorbance of the formazan solution was measured using a Synergy HTX Multi-Mode Reader (BIO-TEK, Vermont, USA) with a 540 nm filter. Each sample was assayed in triplicate.

Data set [3] has as its system HUVECs. Description: In vitro trans-well invasion assay. Conditions: 24 hours, Matrigel-coated trans-well, compared to the control and visfatin-treated groups. On the procedure: The invasion capacity of the cells was determined using a 24-well trans-well system. The upper side of the trans-well membrane was coated with 1 mg/mL Matrigel at 10 μL/well at room temperature for 1 hour. The EGM-2 medium (0.5 ml)was added to the lower part of trans-well chamber. HUVECs (2×10^4 cells) and EGM medium (0.1 ml) were placed on the upper compartment of the trans-well. And then b-FGF (25ng/ml), visfatin (1000 ng/ml), and visfatin-derived peptides (0.5μM and 2.0μM) were added to the upper compartment of the trans-well. Cells were incubated at 37°C and 5% CO2 for 24 hours, fixed with methanol, and stained with hematoxylin and eosin. The cells on the upper surface of the membrane were removed by wiping with a cotton swab. Cell invasion was determined by counting the number of whole cells in a single filter using optical microscopy at 40× magnification. Each sample was assayed in duplicate, and independent experiments were repeated three times.

Data set [4] concerns HUVECs. Description: In vitro wound healing migration assay. The conditions noted are these: 18 h, scratch wound, compared to the control group. On the procedure: HUVECs were seeded in 24-well plates (SPL) at a density of 2×10^5 cells and incubated in EGM medium supplemented with EGM-Supplement Mix® containing 1% FBS overnight. Cells were scratched using a P200 pipette tip to induce a wound. Subsequently, then b-FGF (25ng/ml), visfatin (1000 ng/ml), and visfatin-derived peptides (0.5μM and 2.0μM) were added and the culture was maintained for 18 hours to allow the cells to migrate. The migration patterns were observed using a phase-contrast microscope and images were captured. The wound diameters were photographed at 16–24 hours. Wound closure was determined using optical microscopy at 40× magnification. Migration was quantified by counting the number of cells that had moved beyond the reference line.

For a further data set, the system named is visfatin mRNA expression. The data set can be described thus: RT-qPCR of visfatin mRNA in HUVECs. Conditions: 24 hours, RT-qPCR vs GAPDH, compared to the control group. How it is done: (§1) After treating HUVECs with visfatin-derived peptides for 24 hours, the total RNA was isolated from the cultured HUVECs using the Tri-RNA reagent (Favorgen Biotech Corp., Kaohsiung, Taiwan) according to the manufacturer’s instructions. cDNA was synthesized from 1 μg of total RNA using the iScript^TM cDNA Synthesis Kit (Bio-Rad Laboratories, Inc., Hercules, CA, USA). The mRNA expression levels of VEGF and visfatin were carried out using Applied Biosystems 7500 software (Applied Biosystems Inc., Waltham, MA, USA). Real-time PCR was performed using SYBR Green Q-PCR Master Mix (Samjung Bio Science, Daejeon, South Korea). The reaction conditions were as follows: initial denaturation at 95°C for 5 min, amplification at 95°C for 15 sec, and at 60°C for 1 min. All PCR amplifications were performed for 40 cycles. The specific primers used were as follows: 5’-[…]-3’ (forward) and 5’-GTG ATGGCATGGACTGTGGT-3’ (reverse) for glyceraldehyde-3-phosphate dehydrogenase (GAPDH); 5’-GGAGG GTGACGGGGTGAAGG-3’ (forward) and 5’-[…]-3’ (reverse) for visfatin; and 5’-[…]-3’ (forward) and 5’-[…]-3’ (reverse) for VEGF-A. The relative changes in the gene expression were determined using the 2^-ΔΔCt method and the results were normalized to the expression of GAPDH.

In the next data set the test system is VEGF-A mRNA expression. Description: RT-qPCR of VEGF-A mRNA in HUVECs. Conditions: 24 hours, RT-qPCR vs GAPDH, compared to the control group. How it is done: as §1

Turning to “b-FGF: recombinant human basic fibroblast growth factor, positive control”, the number of meshes result with HUVECs [1] (positive controls, compared to the control group) was “not significantly different”.

In the case of “EYKLHDFGYRGV [Peptide-2, visfatin-derived peptide … (12AA), synthesised by GL Biochem]”, the “cytotoxic effect / viability of HUVECs” value in the data set with HUVECs [2] is “no cytotoxic effect”. In addition, the “increase of cell invasion” value in the data set with HUVECs [3] (2.0 μM) was “more than two-fold”. Also, the “increase in cell migration” value in the data set with HUVECs [4] (2.0 μM) is recorded as “two-fold increase”. Moreover, in the data set on HUVECs [1] (0.5 μM, vs control), the “number of master junctions” value was “significantly increased”. For the same substance, the number of meshes result with HUVECs [1] (0.5 μM, vs control) is reported as “significantly increased”. The “mRNA expression of visfatin” value in the data set on visfatin mRNA expression (0.5 μM) and in the data set with visfatin mRNA expression (2.0 μM) was “significantly increased” in each case. Moreover, the “mRNA expression of VEGF-A” value was “significantly increased” in the data set with VEGF-A mRNA expression (0.5 μM) and “remarkably increased” with VEGF-A mRNA expression (2.0 μM).

As to “LEYKLHDFGY [Peptide-1, visfatin-derived peptide […]; (10AA), synthesised by GL Biochem]”, in the data set on HUVECs [2], the “cytotoxic effect / viability of HUVECs” value was “no cytotoxic effect”. Further, in the data set on HUVECs [3] (0.5 μM), the “increase of cell invasion” value is listed as “more than two-fold”. The “increase in cell migration” value in the data set on HUVECs [4] (0.5 μM) is on record as “two-fold increase”. Besides, the “number of master junctions” value with HUVECs [1] (0.5 μM, vs control) is “significantly increased”; in the data set on HUVECs [1] (2.0 μM, vs control), “significantly increased”. In addition, in the data set with HUVECs [1] (0.5 μM, vs control), the number of meshes entry is recorded as “significantly increased”. Moreover, the “mRNA expression of visfatin” value in the data set on visfatin mRNA expression (0.5 μM) is recorded as “significantly increased”; in the data set with visfatin mRNA expression (2.0 μM), “did not increase”. Also, the “mRNA expression of VEGF-A” value with VEGF-A mRNA expression (0.5 μM) is on record as “significantly increased”; in the data set on VEGF-A mRNA expression (2.0 μM), “did not increase”.
